Laboratory results: patent US20230157996A1, “SMALL-MOLECULE INHIBITOR TARGETING EB VIRUS NUCLEAR ANTIGEN PROTEIN, PREPARATION METHOD AND USE THEREOF” (priority 2020, published 2023)

The molecules below were run on C666-1 cells (assay: C666-1 cell viability single concentration (50 μM) inhibition rate (Resazurin)). Details: 50 μM compound, 72 hours, C666-1 cells.
Assay type: cell-based
Protocol: In order to assess the effect of the EBNA1 inhibitor at the cellular level, the cell proliferation inhibition rate was tested, and the inhibition rate of inhibitor at a specific concentration on the proliferation of Epstein-Barr virus positive cell line C666-1 was detected.
In the test, 100 μL C666-1 cells were inoculated in a transparent 96-well plate, and each well contained 5×10^3 cells. After the cells were cultured in an incubator with 5% carbon dioxide at 37° C. for 24 hours, 10 μL compound at a concentration of 500 μmol/L was added into the cells, so that the final concentration of the compound was 50 μmol/L. Two replicate wells were set for each compound, the wells treated with DMSO were set as control wells (Ctrl), and the wells with cell culture medium only were set as blank wells (blank), and they were treated in the incubator with carbon dioxide at 37° C. for 72 hours. The cell viability was assessed using a redox indicator Resazurin. Specifically, 10 μL Resazurin at a concentration of 600 umol/L was added into each well, and incubated at 37° C. for 3 hours, and a Tecan microplate reader was used to detect the fluorescence signal at an excitation wavelength of 560 nm and an emission wavelength of 590 nm. The formula inh %=1−(F−Fblank)/(FCtrl−Fblank)×100% (where, F is the fluorescence intensity of the compound-added wells, FCtrl and Fblank are the readings of the control wells and blank wells, respectively) was used to calculate the inhibition rate of the compound on the proliferation of C666-1 cells, so as to assess the activity of the compound on Epstein-Barr virus positive cells.
For O=C(O)c1cccc(N2CC(Oc3ccc([N+](=O)[O-])cc3)C2)c1-n1cccc1 [Example 301, 3-(3-(4-nitrophenoxy)azetidin-1-yl)-2-(1H-pyrrol-1-yl)benzoic acid], the “C666-1 cell viability single concentration (50 μM) inhibition rate, Ratio* (Inh %)” value was “++++ (>50% ++++)”.

Same assay, conditions: Homo sapiens, C6661, 72 h, 50 μM compound, 72 hours, C666-1 cells; read-out: C666-1 cell viability single concentration (50 μM) inhibition rate, Ratio* (Inh %)
In the case of COCCOc1ccc(OC2CN(c3cccc(C(=O)O)c3-n3cccc3)C2)cc1OC [Example 219, 3-(3-(3-methoxy-4-(2-methoxyethoxy)phenoxy)azetidin-1-yl)-2-(1H-pyrrol-1-yl)benzoic acid], the inhibition at 50 µM is reported as < 10%.
With CC(C)Oc1ccc(OC2CN(c3cccc(C(=O)O)c3-n3cccc3)C2)cc1 [Example 110, 3-(3-(4-isopropoxyphenoxy)azetidin-1-yl)-2-(1H-pyrrol-1-yl)benzoic acid] the inhibition at 50 µM was < 10%.
With O=C(Nc1ccc(OC(F)(F)F)cc1)Nc1cccc(OC2CN(c3cccc(C(=O)O)c3-n3cccc3)C2)c1 [Example 296, 3-(3-(3-(3-(4-(trifluoromethoxy)phenyl)ureido)phenoxy)azetidin-1-yl)-2-(1H-pyrrol-1-yl)benzoic acid] the inhibition at 50 µM was < 10%.
In the case of COC(=O)c1cccc(N2CC(Oc3ccc(COc4cncnc4)cc3)C2)c1-n1cccc1 [Example 360, Methyl 3-(3-(4-((pyrimidin-5-yl-oxy)methyl)phenoxy)azetidin-1-yl)-2-(1H-pyrrol-1-yl)benzoate], the inhibition at 50 µM is reported as < 10%.
In the case of COC(=O)c1cccc(N2CC(Oc3ccc(NC(=O)Nc4ccc(C(F)(F)F)cc4)cc3)C2)c1-n1cccc1 [Example 229, Methyl 3-(3-(4-(3-(4-(trifluoromethyl)phenyl)ureido)phenoxy)azetidin-1-yl)-2-(1H-pyrrol-1-yl)benzoate], the inhibition at 50 µM is reported as > 50%.
O=C(O)c1cccc(N2CC(Oc3cccc(Oc4ccccc4)c3)C2)c1-n1cccc1 [Example 223, 3-(3-(3-phenoxyphenoxy)azetidin-1-yl)-2-(1H-pyrrol-1-yl)benzoic acid] was tested, and the inhibition at 50 µM was < 10%.
O=C(O)c1cccc(OC2CN(c3cccc(C(=O)O)c3-n3cccc3)C2)c1 [Compound 73, 3-(3-(3-carboxylphenoxy)azetidin-1-yl)-2-(1H-pyrrol-1-yl)benzoic acid] was tested, and the inhibition at 50 µM was < 10%.
In the case of COC(=O)c1cccc(N2CC(Oc3cc(Cl)nc(Cl)c3)C2)c1-n1cccc1 [Compound 91, Methyl 3-(3-((2,6-dichloropyridin-4-yl)oxy)azetidin-1-yl)-2-(1H-pyrrol-1-yl)benzoate], the inhibition at 50 µM is reported as < 10%.
In the case of CCOc1ccc(OC2CN(c3cccc(C(=O)O)c3-n3cccc3)C2)cc1 [Example 100, 3-(3-(4-ethoxyphenoxy)azetidin-1-yl)-2-(1H-pyrrol-1-yl)benzoic acid], the inhibition at 50 µM is reported as < 10%.
For O=C(O)c1cccc(N2CC(OCc3cscn3)C2)c1-n1cccc1 [Example 141], the inhibition at 50 µM was < 10%.
COC(=O)c1cccc(N2CC(S(=O)(=O)c3ccc(C)cc3)C2)c1-n1cccc1 [Example 192, Methyl 2-(1H-pyrrol-1-yl)-3-(3-(p-tolylsulfonyl)azetidin-1-yl)benzoate] showed an inhibition at 50 µM of 10 to 30%.
With COC(=O)c1cccc(N2CC(Oc3ccc(NC(=O)NC4CCCCC4)cc3)C2)c1-n1cccc1 [Example 130, Methyl 3-(3-(4-(3-cyclohexylureido)phenoxy)azetidin-1-yl)-2-(1H-pyrrol-1-yl)benzoate] the inhibition at 50 µM was < 10%.
Molecule COC(=O)c1cccc(N2CC(Oc3ccc(CO)cc3)C2)c1-c1ccc2ccsc2c1 [Compound 43, Methyl 2-(benzo[b]thiophen-6-yl)-3-(3-(4-(hydroxymethyl)phenoxy)azetidin-1-yl)benzoate] has an inhibition at 50 µM of 10 to 30%.
In the case of O=C(O)c1cccc(N2CC(OCc3cnccn3)C2)c1-n1cccc1 [Example 143], the inhibition at 50 µM is reported as < 10%.
With CC(=O)Nc1ccc(OC2CN(c3cccc(C(=O)O)c3-n3cccc3)C2)cc1 [Example 121, 3-(3-(4-acetylaminophenoxy)azetidin-1-yl)-2-(1H-pyrrol-1-yl)benzoic acid] the inhibition at 50 µM was < 10%.
COC(=O)c1cccc(N2CC(Oc3ccc(CO)cc3)C2)c1-c1cc(F)cc(F)c1 [Compound 61, Methyl 3′,5′-difluoro-6-(3-(4-(hydroxymethyl)phenoxy)azetidin-1-yl)-[1,1′-biphenyl]-2-formate] showed an inhibition at 50 µM of 10 to 30%.
For COC(=O)c1cccc(N2CC(Oc3ccc(Cl)nc3)C2)c1-n1cccc1 [Compound 85, Methyl 3-(3-((6-chloropyridin-3-yl)oxy)azetidin-1-yl)-2-(1H-pyrrol-1-yl)benzoate], the inhibition at 50 µM was > 50%.
In the case of CS(=O)(=O)c1ccc(Oc2ccc(OC3CN(c4cccc(C(=O)O)c4-n4cccc4)C3)cc2)cc1 [Example 213, 3-(3-(4-(4-(methylsulfonyl)phenoxy)phenoxy)azetidin-1-yl)-2-(1H-pyrrol-1-yl)benzoic acid], the inhibition at 50 µM is reported as < 10%.
COC(=O)c1cccc(N2CC(Oc3ccc(CNC(=O)NC4CC4)cc3)C2)c1-n1cccc1 [Example 242, Methyl 3-(3-(4-((3-cyclopropylureido)methyl)phenoxy)azetidin-1-yl)-2-(1H-pyrrol-1-yl)benzoate] gave an inhibition at 50 µM of 10 to 30%.
Work on COC(=O)c1cccc(N2CC3(CN(c4cccc(N)c4)C3)C2)c1N [Compound 33, Methyl 2-amino-3-(6-(3-aminophenyl)-2,6-diazaspiro[3.3]heptan-2-yl)benzoate] yielded an inhibition at 50 µM of 10 to 30%.
For COC(=O)c1cccc(N2CC3(CN(c4ccccc4)C3)C2)c1-n1cccc1 [Example 274, Methyl 3-(6-phenyl-2,6-diazaspiro[3.3]heptan-2-yl)-2-(1H-pyrrol-1-yl)benzoate], the inhibition at 50 µM was < 10%.
With COCCOCc1ccc(OC2CN(c3cccc(C(=O)O)c3-n3cccc3)C2)cc1OCCOC [Example 367, 3-(3-(3-(2-methoxyethoxy)-4-((2-methoxyethoxy)methyl)phenoxy)azetidin-1-yl)-2-(1H-pyrrol-1-yl)benzoic acid] the inhibition at 50 µM was < 10%.
With COC(=O)c1cccc(N2CC(Oc3ccc([N+](=O)[O-])cc3)C2)c1-n1cccc1 [Example 286, Methyl 3-(3-(4-nitrophenoxy)azetidin-1-yl)-2-(1H-pyrrol-1-yl)benzoate] the inhibition at 50 µM was 10 to 30%.
For COC(=O)c1cccc(N2CC(SC3CCCCC3)C2)c1-n1cccc1 [Example 350, Methyl 3-(3-(cyclohexylthio)azetidin-1-yl)-2-(1H-pyrrol-1-yl)benzoate], the inhibition at 50 µM was < 10%.
In the case of COCCOCc1ccc(OC2CN(c3cccc(C(=O)OC)c3-n3cccc3)C2)cc1OCCOC [Example 366, Methyl 3-(3-(3-(2-methoxyethoxy)-4-((2-methoxyethoxy)methyl)phenoxy)azetidin-1-yl)-2-(1H-pyrrol-1-yl)benzoate], the inhibition at 50 µM is reported as 10 to 30%.
With COC(=O)c1cccc(N2CC(Oc3cccc(C(=O)O)c3)C2)c1N [Example 282, Methyl 2-amino-3-(3-(3-carboxylphenoxy)azetidin-1-yl)benzoate] the inhibition at 50 µM was < 10%.
COC(=O)c1cccc(N2CC(Oc3ccc(COC(=S)Nc4ccc(Cl)cc4)cc3)C2)c1-n1cccc1 [Example 236, Methyl 3-(3-(4-((((4-chlorophenyl)thiocarbamoyl)oxy)methyl)phenoxy)azetidin-1-yl)-2-(1H-pyrrol-1-yl)benzoate] showed an inhibition at 50 µM of 10 to 30%.
For COC(=O)c1cccc(N2CC(Oc3ccc(NC(=O)Nc4cccc(Cl)c4)cc3)C2)c1-n1cccc1 [Example 133, Methyl 3-(3-(4-(3-(3-chlorophenyl)ureido)phenoxy)azetidin-1-yl)-2-(1H-pyrrol-1-yl)benzoate], the inhibition at 50 µM was > 50%.
COC(=O)c1cccc(C#CN(Cc2ccc(OC)cc2)S(=O)(=O)c2ccc(C)cc2)c1-n1cccc1 [Example 385] gave an inhibition at 50 µM of 10 to 30%.
In the case of COC(=O)c1cccc(C#CN(Cc2ccc3c(ccn3C)c2)S(=O)(=O)c2csc3ccccc23)c1-n1cccc1 [Example 334, Methyl 3-((N-((1-methyl-1H-indol-5-yl)methyl)benzo[b]thiophen-3-sulfonamido)ethynyl)-2-(1H-pyrrol-1-yl)benzoate], the inhibition at 50 µM is reported as > 50%.
For COC(=O)c1cccc(N2CC(Oc3ccc(Oc4ccccc4)cc3)C2)c1-n1cccc1 [Example 111, Methyl 3-(3-(4-phenoxyphenoxy)azetidin-1-yl)-2-(1H-pyrrol-1-yl)benzoate], the inhibition at 50 µM was < 10%.
For Cc1ccc(S(=O)(=O)NC2CN(c3cccc(C(=O)O)c3-n3cccc3)C2)cc1 [Example 177, 3-(3-((4-methylphenyl)sulfonamido)azetidin-1-yl)-2-(1H-pyrrol-1-yl)benzoic acid], the inhibition at 50 µM was < 10%.
In the case of O=C(O)c1cccc(N2CC(Oc3cc(F)c(Oc4ccccc4)c(F)c3)C2)c1-n1cccc1 [Example 205, 3-(3-(3,5-difluoro-4-phenoxyphenoxy)azetidin-1-yl)-2-(1H-pyrrol-1-yl)benzoic acid], the inhibition at 50 µM is reported as < 10%.
In the case of O=C(O)c1cccc(N2CC(Oc3ccc(Cl)cc3)C2)c1-n1cccc1 [Compound 96, 3-(3-(4-chlorophenoxy)azetidin-1-yl)-2-(1H-pyrrol-1-yl)benzoic acid], the inhibition at 50 µM is reported as < 10%.
COC(=O)c1cccc(C#CN(Cc2ccc(C(F)(F)F)cc2)S(=O)(=O)c2ccc(C)cc2)c1-n1cccc1 [Example 346] showed an inhibition at 50 µM of 10 to 30%.

Same assay, conditions: Homo sapiens, C6661, 72 h, read-out: C666-1 cell viability single concentration (50 μM) inhibition rate, Ratio* (Inh %)
Cc1ccc(S(=O)(=O)N(C#Cc2cccc(C(=O)O)c2-n2cccc2)Cc2ccncc2)cc1 [Example 390] gave an inhibition at 50 µM of 10 to 30%.
